# In patent publication US20110039898A1, “METHOD FOR SCAVENGING FREE RADICALS AND INHIBITING TYROSINASE AND MELANIN” (priority 2009, published 2011):
# Columns and labels:
# [1] = test system: melanin content in B16-F10 cells; assay: Melanin content in B16-F10 cells with ERK and AKT pathway inhibitors; format: cell-based
# From the text: The mechanism of inhibition of melanogenesis by nicotinyl hydroxamic acid in B16-F10 cells is further described as follows. ERK and AKT/[…] pathways participate in melanogenesis. PD98059, a MEK selective inhibitor, inhibits the activity of ERK (ERK is activated by MEK). LY294002, a phosphatidylinositol 3-kinase (PI3K) inhibitor, blocks the AKT/PKB pathway. The two inhibitors are used to determine the participation of nicotinyl hydroxamic acid in the ERK and AKT/PKA pathways. […] However, when nicotinyl hydroxamic acid is simultaneously added, the inhibition of melanin thereby is reduced by PD98059 and LY294002.
# [2] = test system: tyrosinase activity of B16-F10 cells; assay: Tyrosinase activity assay in situ; format: cell-based; conditions: three days
# Procedure: Tyrosinase Activity Assay In Situ
# B16-F10 cells (1×10^5) were placed on a 60 mm culture dish. After 12 hours, an adherent monolayer was formed on the bottom of the culture dish. After removal of the used culture medium, a fresh culture medium was added. A sample solution with various concentrations and/or 50 nM melanocytes stimulating hormone (MSH) were then added and cultivated at 37° C. for three days. After removal of the upper clean solution, the cells were washed two times using a PBS. After the cells were scraped away, protein was extracted and quantitated. One hundred μl of a phosphate buffer (250 mM, pH 6.5), 50 μl of a L-DOPA (10 mM) and 50 μl of a cell extract were sequentially added to a 96-well plate, uniformly mixed and reacted in a 37° C. culture box. The absorption of the result was then measured by an ELISA reader (475 nm).
# melanin of B16-F10 cells = assay: Melanin content assay in situ; format: cell-based; conditions: for inhibition of melanin of B16-F10 cells: three days, nicotinyl hydroxamic acid 10, 20, 40, 60 μM
# Procedure: Melanin Content Assay In Situ
# B16-F10 cells (1×10^5) were placed on a 60 mm culture dish. The nicotinyl hydroxamic acid and the N-methyl nicotinic acid hydroxamate iodide with various concentrations were respectively added and cultivated for three days in a culture box. After removal of the upper clean solution, the cells were washed two times using a PBS. The melanin was dissolved by 1N NaOH (90° C., 30 minutes). The melanin content was then measured (405 nm).
# [3] = test system: polyphenol oxidase in the apple juice; assay: Polyphenol oxidase inhibition assay in apple juice; format: biochemical; conditions: 5 to 200 μM; absorbance at 420 nm within two hours
# Procedure: Polyphenol Oxidase Inhibition Assay
# Apples were purchased from local supermarkets. 100 g of apples were peeled, cored and sliced prior to juicing in a blender. The preparation was with 100 ml distilled water filtered through swab and collected by centrifugation 12,000 rpm for 10 min at 4° C. The apple juice obtained was immediately collected 200 μl in a 96 well microplate and mixed nicotinyl hydroxamic acid and N-methyl nicotinic acid hydroxamate iodide (5-200 μM).
# melanoma cells (B16-F10) = assay: Cell viability assay (MTT), melanoma cells; format: cell-based; conditions: 24 hours; for cell toxicity to melanoma cells (B16-F10): under effective concentration to inhibit melanin
# Procedure: (§1) The culture medium was removed from the culture dish filled with cells. The cells were washed using 10 ml of a PBS. The number of the cells was counted by a blood cell counter and diluted to a proper cell concentration. 500 µl/well of the result was added to a 24-well culture plate and cultivated in a 37° C. culture box with 5% CO2 and mist until the cells were stuck on the bottom of the culture dish. After removal of the used culture medium, a fresh drug-containing culture medium with various concentrations was added (the drug was directly added when cells were suspended) and cultivated for 24 hours in a 37° C. culture box with 5% CO2 and mist. After removal of the upper clean solution, the cells were washed two times using a PBS. An MTT solution (500 μg/ml) prepared from the medium was then added to the well and reacted for 4-6 hours in a 37° C. culture box. After removal of the upper clean solution, 100 μl of a DMSO was added until a formazan crystal was dissolved. The absorption of the result was then measured by an ELISA reader (600 nm).
# human melanocytes = assay: Cell viability assay (MTT), human melanocytes; format: cell-based; conditions: 24 hours
# Procedure: as §1
# tyrosinase = assay: Western blot of B16-F10 cells: tyrosinase; format: cell-based; conditions: B16-F10 cells treated 24 hours
# Procedure: (§2) After using nicotinyl hydroxamic acid to treat B16-F10 cells for 24 hours, proteins are extracted and analyzed using the western blot method. The contents of tyrosinase and TRP-1 are reduced as the concentration of nicotinyl hydroxamic acid is increased.
# TRP-1 = assay: Western blot of B16-F10 cells: TRP-1; format: cell-based; conditions: B16-F10 cells treated 24 hours
# Procedure: as §2
# TRP-2 = assay: Western blot of B16-F10 cells: TRP-2; format: cell-based; conditions: B16-F10 cells treated 24 hours
# MITF = assay: Western blot of B16-F10 cells: MITF; format: cell-based
# Procedure: as §2
# Microphthalmia-associated transcription factor (MITF) is a transcription factor controlling tyrosinase and TRP-1 expression in cells, with a helix-loop-helix leucine zipper structure, capable of regulation of melanogenesis and survival and proliferation of melanocytes.
# p-ERK = assay: Western blot of B16-F10 cells: p-ERK; format: cell-based
# From the text: (§3) Additionally, according to the analytical results obtained using the western blot method, it was shown that the expression of p-ERK, p-MEK and p-AKT is increased as the concentration of nicotinyl hydroxamic acid is increased. Thus, in addition to inhibition of tyrosinase and adjustment of MITF, nicotinyl hydroxamic acid also reduces the melanin content in cells through ERK and AKT/PKB pathways.
# p-MEK = assay: Western blot of B16-F10 cells: p-MEK; format: cell-based
# From the text: as §3
# p-AKT = assay: Western blot of B16-F10 cells: p-AKT; format: cell-based
# From the text: as §3
# [4] = concentration increased to 5 mM
SMILES,effect on melanin content in cells ([1]; inhibitor added),tyrosinase activity of B16-F10 cells as concentration was increased ([2]; MSH added (50 nM)),tyrosinase activity of B16-F10 cells as concentration was increased ([2]; no MSH added),concentration added to achieve the same inhibition effect on melanin content (melanin of B16-F10 cells; MSH added) [mM],inhibition of melanin of B16-F10 cells (melanin of B16-F10 cells; MSH added),inhibition of melanin of B16-F10 cells (melanin of B16-F10 cells; MSH not added),concentration added to achieve the same inhibition effect on melanin content (melanin of B16-F10 cells; no MSH added) [mM],inhibition of polyphenol oxidase in the apple juice [3],cell toxicity to melanoma cells (B16-F10) (melanoma cells (B16-F10)),viability of human melanocytes (human melanocytes; concentration increased to 1 mM),content of tyrosinase as concentration is increased (tyrosinase),content of TRP-1 as concentration is increased (TRP-1),content of TRP-2 versus concentration (TRP-2),content of MITF as concentration is increased (MITF),expression of p-ERK as concentration is increased (p-ERK),expression of p-MEK as concentration is increased (p-MEK),expression of p-AKT as concentration is increased (p-AKT),inhibition of melanin when PD98059 and LY294002 are simultaneously added ([1]; with PD98059 and LY294002),viability of B16-F10 melanoma cells (melanoma cells (B16-F10); [4]),viability of human melanocytes (human melanocytes; [4])
"COc1cccc(-c2cc(=O)c3ccccc3o2)c1N [PD98059, reference compound]",increases melanin content,–,–,–,–,–,–,–,–,–,–,–,–,–,–,–,–,–,–,–
O=C(NO)c1cccnc1 [nicotinyl hydroxamic acid],–,decreased,decreased,0.04,effectively inhibited,effectively inhibited,0.06,effectively inhibited,low cell toxicity,still alive,reduced,reduced,irrelevant to the concentration,reduced,increased,increased,increased,reduced,–,–
C[n+]1cccc(C(=O)NO)c1 [N-methyl nicotinic acid hydroxamate iodide],–,decreased,decreased,–,achieved the same effects,achieved the same effects,–,effectively inhibited,low cell toxicity,–,–,–,–,–,–,–,–,–,still alive,still alive
"O=c1cc(CO)occ1O [kojic acid, reference compound]",–,–,–,1.5,–,–,1.5,–,–,–,–,–,–,–,–,–,–,–,–,–
